Assay results published in patent US8053634B2, “Stabilization and blueing of anthocyanin pigments using gene encoding aromatic acyltransferase capable of transferring an aromatic acyl group to the 3′-position of anthocyanin” (Suntory Holdings Limited, priority 2004, dated 2011).

Experiments:
[1] = target: T1, recombinant acyltransferase derived from Gentiana triflora expressed in E. coli (Gentiana triflora, UniProt Q9ZWR8); experiment: Measurement of activity of recombinant acyltransferase (HPLC analysis of reaction products); assay type: biochemical; settings: for amount of product formed in time course of the reaction: 25-fold diluted enzyme, DEL 3G-5G-3′G 50, 100 or 200 μM as substrate, 2.5-20 minutes
T1 construct: a fragment containing the coding region of the acyltransferase and the 3′-untranslated region was subcloned to the NcoI/HindIII site; made in house; host or cells: E. coli JM109 (pQE8, derived from pQE60)
T1 sequence (Q9ZWR8 1-469): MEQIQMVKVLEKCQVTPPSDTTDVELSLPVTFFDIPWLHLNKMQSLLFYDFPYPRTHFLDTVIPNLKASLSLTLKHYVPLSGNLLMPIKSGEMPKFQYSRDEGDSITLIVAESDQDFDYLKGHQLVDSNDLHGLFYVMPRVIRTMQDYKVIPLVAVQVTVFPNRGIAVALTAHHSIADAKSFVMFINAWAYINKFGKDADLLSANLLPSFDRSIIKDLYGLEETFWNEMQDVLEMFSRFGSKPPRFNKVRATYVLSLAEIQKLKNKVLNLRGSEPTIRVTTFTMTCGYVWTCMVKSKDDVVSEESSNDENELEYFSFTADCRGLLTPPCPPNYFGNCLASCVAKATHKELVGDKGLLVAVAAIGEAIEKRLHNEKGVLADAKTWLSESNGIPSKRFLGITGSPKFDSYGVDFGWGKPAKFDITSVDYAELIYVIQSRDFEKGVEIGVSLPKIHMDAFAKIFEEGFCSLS
Protocol: The enzymatic activity of the recombinant enzyme obtained in Example 1 was measured with 3 types of delphinidin derivatives (delphinidin 3,5,3′-triglucoside (DEL 3G-5G-3′G), delphinidin 3-glucosyl-5-caffeoylglucosyl-3′-glucoside (DEL 3G-5CafG-3′G), delphinidin 3-glucosyl-5-glucosyl-3′-caffeoylglucoside (DEL 3G-5G-3′CafG)) shown in FIG. 1 and FIG. 2 as substrates. The reaction mixture contained 100 mM potassium phosphate buffer (pH 8.5), 0.2 mM caffeoyl-CoA, […] each of the above substrates and 5 μl of the enzyme solution in a total volume of 50 μl, and the reaction was carried out at 30° C. for 15 minutes. An equal volume of 90% acetonitrile solution containing 0.1% trifluoroacetic acid (TFA) was added to the reaction mixture to stop the reaction.
In order to analyze time course changes of reaction products, 5 μl of a 25-fold diluted enzyme solution and each of 50 μM, 100 μM or 200 μM of DEL 3G-5G-3′G were used as a substrate, and the reaction was stopped at 2.5, 5, 10, and 20 minutes later to analyze the products. The reaction products were analyzed with a reverse phase high performance liquid chromatography (HPLC) using a DE-41 column (4.6×250 mm, Shodex). Samples were eluted with an liner gradient of 20-50% of acetonitrile containing 0.5% TFA at 0.6 ml/min for 15 minutes, and then isoclatic elution at 0.6 ml/min for 10 minutes, and detected with SPD-M10A (SHIMAZU Corporation) at a wavelength of 250-600 nm. The HPLC elution time and absorption spectra of products were compared with those of authentic samples to identify the structure of products.

[2] = among four delphinidin glucosides, cited from earlier work
[3] = Flower color simulation: purified pigment in juice squeezed from rose petals (cv. Medeo); assay type: physicochemical; settings: Medeo squeezed juice (petal pH 4.38), diluted 4-fold; among five purified pigments
Protocol: In order to simulate the flower color when the gene for gentian anthocyanin 5,3′-acyltransferase was introduced into roses and DEL 3G-5CafG-3′CafG was accumulated in rose petals, the color development of a purified pigment suspended in juice squeezed form rose petals (cv. Medeo) was measured. As for purified pigments, DEL 3G-5CafG-3′CafG, and as a comparative control, DEL 3G-5G, cyanidin 3,5-diglucoside (CYA 3G-5G), pelargonidin 3,5-diglucoside (PEL 3G-5G) and malvidin 3,5-diglucoside (MAL 3G-5G) were used. About 20 g of Medeo petals frozen at −80° C. for more than one hour were squeezed by a garlic squeezer for household use, and centrifuged at 1000 rpm for 1 minute to remove the debris of the petals, and the supernatant was prepared as the squeezed juice.
Twenty μl of 50 mM DMSO solution of purified pigment was added to 1 ml of the squeezed juice, and kept for 10 minutes, and the absorption and transmittance spectra at 380-780 nm were measured with a spectrophotometer UV-2500PC(SHIMADZU Corporation). The transmittance spectrum values were converted into CIE L*a*b* color system (JISZ8729). […] However, since the absorbance for 3G-5CafG-3′CafG was too high, it was diluted 4-fold prior to measurement.

[4] = target: T2, 5,3′-aromatic acyltransferase from Gentiana triflora expressed in nierembergia (Gentiana triflora, UniProt Q9ZWR8); experiment: In vitro 5,3′-aromatic acyltransferase activity of crude enzyme from petals of nierembergia transformants; assay type: biochemical; settings: in a manner similar to Example 2
T2 construct: expressed in transfected cells; host or cells: petals of transgenic nierembergia (binary construct pSPB1536, 35S promoter)
T2 sequence (Q9ZWR8 1-469): T1 sequence (Q9ZWR8 1-469)
Text: On the other hand, a crude enzyme was extracted from the petals of the transformants where transcription of all three genes were confirmed, in a manner as described in the report by Fujiwara et al. (Fujiwara et al., (1997) Eur. J. Biochem. 249: 45-51). […] On the other hand, when the crude enzyme from a non-recombinant nierembergia was used as the control, gentiodelphin was not detected.

[5] = target: T3, aromatic acyltransferase purified from gentian petals (Gentiana triflora, UniProt Q9ZWR8); experiment: Activity of aromatic acyltransferase purified from gentian petals (active fraction adsorbed to Dyematrix column Red); assay type: biochemical; settings: as in Example 2
T3 construct: an enzyme naturally occurring in gentian petals also has both activities; from tissue; host or cells: Gentiana petals
T3 sequence (Q9ZWR8 1-469): T1 sequence (Q9ZWR8 1-469)
Text: The recombinant protein obtained by expressing a gentian cDNA of an aromatic acyltransferase in E. coli turned out to have an activity of transferring aromatic acyl groups to glucoses at the 5 and the 3′ position of a anthocyanin (Example 2). In order to confirm that an enzyme naturally occurring in gentian petals also has both activities of the 5-aromatic acyltransferase and the 3′-aromatic acyl transferase, this enzyme was purified from gentian petals. In a series of purification, as described in Example 2, each eluted fraction of column chromatography was measured for 5-aromatic acyltransferase activity with DEL 3G-5G as a substrate and for 3′-aromatic acyltransferase activity with DEL 3G-5G-3′G as a substrate.
According to a report by Fujiwara et al. (Fujiwara et al., Eur. J. Biochem. 249: 45, 1997) in which a gentian 5-aromatic acyltransferase was purified, 40-70% ammonium sulfate-saturated fraction was obtained from extract of approximately 100 g of Gentiana petals. This fraction was dialyzed with Sephadex G-25 (Pharmacia) equilibrated with 20 mM Tris-HCl (pH 7.0) containing 10 μM p-aminophenylmethanesulfonyl fluoride (APMSF) and 1 mM DTT (hereinafter referred to as the Tris buffer), then it was loaded to MONO Q (Pharmacia) equilibrated with the Tris buffer. […]
The active fractions were loaded to HiTrap Blue (Pharmacia) and extensively washed in the Tris buffer, and then the adsorbed fraction was eluted with a Tris buffer containing 0.9 M NaCl. […] When the eluted protein was subject to SDS-PAGE, only a single band was detected at molecular weight of 52 kDa which is an estimated molecular weight for an anthocyanin 5-acyltransferase.
In a series of purifications, each eluted fraction of column chromatography was measured for the 5-aromatic acyltransferase activity with DEL 3G-5G as a substrate and for the 5,3′-aromatic acyltransferase activity with DEL 3G-5G-3′G as a substrate, and the fractions with the highest activity in both acyltransferase reactions were completely identical.

[6] = 250 mM substrate, 0.2 mM caffeoyl-CoA, pH 8.5, 30° C., 15 minutes, undiluted enzyme

Row | Molecule | amount of product formed in time course of the reaction [1] | absorbance maximum (relative wavelength) [2] | blueness (relative) [2] | relative stability (fading) ([2]; aqueous solution of pH 6.5) | maximum absorption spectrum (relative) [3] | substrate converted to DEL 3G-5CafG-3′CafG [1, 6] | substrate converted to DEL 3G-5CafG-3′G (acyl group at the 5 position alone) [1, 6] | substrate converted to DEL 3G-5G-3′CafG (acyl group at the 3′ position alone) [1, 6] | product formation from the substrate by crude enzyme of transgenic nierembergia [4] | reaction of the enzyme purified from gentian petals with the substrate [5]
1 | O=C(/C=C/c1ccc(O)c(O)c1)OC[C@H]1O[C@@H](Oc2cc(-c3[o+]c4cc(O)cc(O[C@@H]5O[C@H](COC(=O)/C=C/c6ccc(O)c(O)c6)[C@@H](O)[C@H](O)[C@H]5O)c4cc3O[C@@H]3O[C@H](CO)[C@@H](O)[C@H](O)[C@H]3O)cc(O)c2O)[C@H](O)[C@@H](O)[C@@H]1O [DEL 3G-5CafG-3′CafG, gentiodelphin] | increased according to the reaction time | longest wavelength | most blueish | most stable and refractory to fading | largest maximum absorption spectrum |  |  |  |  | 
2 | OC[C@H]1O[C@@H](Oc2cc3c(O[C@@H]4O[C@H](CO)[C@@H](O)[C@H](O)[C@H]4O)cc(O)cc3[o+]c2-c2cc(O)c(O)c(O[C@@H]3O[C@H](CO)[C@@H](O)[C@H](O)[C@H]3O)c2)[C@H](O)[C@@H](O)[C@@H]1O [DEL 3G-5G-3′G, delphinidin 3,5,3′-triglucoside] |  |  |  |  |  | 58.7% | 7.2% | ≤ 1% | formation of gentiodelphin was confirmed | reacted
3 | delphinidin 3-glucosyl-5-caffeoylglucosyl-3′-glucoside [DEL 3G-5CafG-3′G] | increased according to the reaction time |  |  |  |  | 94.1% |  |  |  | reacted
4 | delphinidin 3-glucosyl-5-glucosyl-3′-caffeoylglucoside [DEL 3G-5G-3′CafG] | barely detected |  |  |  |  | 95.2% |  |  |  | reacted
